Consider seven molecules from ChEMBL document CHEMBL3044931, “Synthesis and Antimuscarinic Activity of Derivatives of 2-Substituted-1,3-Dioxolanes” (Med Chem Res, 2005).

Test [1] in a line: Antagonist activity at Oryctolagus cuniculus (rabbit) vas deferens M1 receptor after 1 hr. The settings on record: read-out: pA2 (converted).
The species entered for a further test is Cavia porcellus. Description: Selectivity ratio of pKb for Cavia porcellus (guinea pig) ileum M3 receptor to pKb for Cavia porcellus (guinea pig) left atria M2 receptor. It is filed as tissue-based. Particulars: Atrium/Ileum.
A short description of test [2]: Selectivity ratio of pKb for rabbit vas deferens M1 receptor to pKb for guinea pig ileum M3 receptor. It is filed as tissue-based.
In test [3] the target is T1, Muscarinic receptor 2 (Cavia porcellus) (UniProt Q8VH27).
T1 sequence (whole entry): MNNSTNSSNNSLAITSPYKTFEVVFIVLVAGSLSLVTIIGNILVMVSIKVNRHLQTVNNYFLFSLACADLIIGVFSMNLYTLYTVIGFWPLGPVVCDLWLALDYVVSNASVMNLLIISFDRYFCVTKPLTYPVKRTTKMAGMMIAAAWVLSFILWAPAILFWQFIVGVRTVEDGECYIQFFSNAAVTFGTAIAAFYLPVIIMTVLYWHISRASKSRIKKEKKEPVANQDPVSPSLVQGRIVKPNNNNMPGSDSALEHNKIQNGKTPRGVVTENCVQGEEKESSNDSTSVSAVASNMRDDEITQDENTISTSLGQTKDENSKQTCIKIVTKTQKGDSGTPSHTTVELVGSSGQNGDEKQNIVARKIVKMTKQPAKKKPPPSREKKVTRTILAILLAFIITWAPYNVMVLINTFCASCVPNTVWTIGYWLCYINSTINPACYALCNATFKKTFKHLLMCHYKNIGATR
Description: Binding affinity to Cavia porcellus (guinea pig) left atria M2 receptor after 2 hr.

For another test, the species on record is Oryctolagus cuniculus. Put plainly: Binding affinity to Oryctolagus cuniculus (rabbit) vas deferens M1 receptor after 1 hr.
The target in test [4] is Muscarinic acetylcholine receptor M3 (Cavia porcellus) (UniProt Q8VH26). Description: Binding affinity to Cavia porcellus (guinea pig) ileum M3 receptor after 30 min. It counts as tissue-based.
A short description of test [5]: Selectivity ratio of pKb for rabbit vas deferens M1 receptor to pKb for guinea pig left atria M2 receptor.

SMILES strings stand for the structures.

Muscarinic acetylcholine receptor M3 (Cavia porcellus), sequence (Q8VH26 1-587): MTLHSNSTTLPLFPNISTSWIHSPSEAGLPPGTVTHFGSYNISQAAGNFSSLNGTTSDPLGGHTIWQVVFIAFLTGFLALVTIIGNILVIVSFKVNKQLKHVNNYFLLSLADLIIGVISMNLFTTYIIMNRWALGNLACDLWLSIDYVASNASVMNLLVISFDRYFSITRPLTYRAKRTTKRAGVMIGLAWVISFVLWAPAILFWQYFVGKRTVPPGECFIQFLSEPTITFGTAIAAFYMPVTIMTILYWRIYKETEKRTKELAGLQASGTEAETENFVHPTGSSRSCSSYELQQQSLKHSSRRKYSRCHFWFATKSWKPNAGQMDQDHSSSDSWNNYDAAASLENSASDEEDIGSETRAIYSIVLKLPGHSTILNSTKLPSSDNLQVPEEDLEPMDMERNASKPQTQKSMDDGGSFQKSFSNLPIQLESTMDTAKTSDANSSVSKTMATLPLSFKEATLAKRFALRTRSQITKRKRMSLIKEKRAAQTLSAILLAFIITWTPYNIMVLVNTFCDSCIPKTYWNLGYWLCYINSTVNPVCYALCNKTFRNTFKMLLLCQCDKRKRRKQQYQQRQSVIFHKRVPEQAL

On to `CN(C)[C@H]1CO[C@H](C(c2ccccc2)c2ccccc2)OC1`, for which the Kb in test [1] is 389 nM.

One may read the pKb as −log10 of the Kb, conventionally taken in molar units. For the molecule `CN(C)CC1COC(c2ccccc2)(c2ccccc2)O1` (configuration not stated), the Ratio pKb in the test listed under Cavia porcellus is 0.4; in test [2], 3; in test [5] it was 1. The pKb was determined as 7.11 in test [3], 7.15 in the test filed under Oryctolagus cuniculus and 6.72 in test [4].

Consider `CN(C)[C@H]1CO[C@@H](C(c2ccccc2)c2ccccc2)OC1`, for which the Kb in test [1] was 6.17 nM.

As to `CN(C)C[C@@H]1CO[C@@H](C(c2ccccc2)c2ccccc2)O1`, the Ratio pKb in the test listed under Cavia porcellus was found to be 1; in test [2], 2; in test [5], 2. In addition, the pKb in test [3] is 6.56; in the test listed under Oryctolagus cuniculus, 6.9; in test [4], 6.67.

In the case of `C[C@@H]1OC(c2ccccc2)(c2ccccc2)O[C@@H]1CN(C)C` (relative stereo), the Ratio pKb amounted to 0.9 in the test filed under Cavia porcellus, 0.8 in test [2] and 0.7 in test [5]. For the same molecule, the negative logarithm of the Kb (pKb) amounted to 6.48 in test [3], 6.35 in the test listed under Oryctolagus cuniculus and 6.44 in test [4].

In the case of `C[C@H]1OC(c2ccccc2)(c2ccccc2)O[C@@H]1CN(C)C` (relative stereo), the Ratio pKb (in the test filed under Cavia porcellus; in test [2]; in test [5]) was 1 each time. The pKb in test [3] came out at 6.71; in the test listed under Oryctolagus cuniculus it was 6.87; in test [4], 6.71.

As for `CN(C)C[C@@H]1CO[C@H](C(c2ccccc2)c2ccccc2)O1` (relative stereo), the Ratio pKb is 0.3 in the test filed under Cavia porcellus, 17 in test [2] and 5 in test [5]. For the same molecule, the negative-log Kb (pKb) in test [3] came out at 6.62; in the test listed under Oryctolagus cuniculus, 7.31; in test [4], 6.07.
